The target in this experiment is hCRTH2 receptor (Homo sapiens (Human), UniProt Q9Y5Y4). Nature of the experiment: hCRTH2 receptor membranes radioligand (3H-PGD2) displacement assay. In kind it is binding. Particulars: 3H-PGD2 radioligand displacement, HEK293-hCRTH2 membranes. The procedure: Biological Assays: Preparation of hCRTH2 Receptor Membranes and Radioligand Displacement Assay:
First, recombinant HEK293-hCRTH2 cells were detached from culture plates into 5 ml buffer A/plate (Buffer A: 5 mM Tris, 1 mM MgCl2-6H2O pH=7.4) using a rubber policeman. Cells were then transferred into centrifugation tubes and centrifuged for 5 min at 400 g. The cell pellet was resuspended in the same buffer and tubes were frozen at −80° C. Cells were thawed and membrane fragments were generated by homogenization using a polytron homogenizer (30 seconds). The membrane fragments were then centrifuged at 3000 g for 20 minutes and resuspended in buffer C (Buffer C: 75 mM Tris, 25 mM MgCl2, 250 mM Saccharose pH 7.4). Aliquots of membrane fragments were stored at −20° C.
Binding assay was performed in a final assay volume of 250 μl. First, 25 μl of test compound, previously diluted in Binding-Buffer (Binding-Buffer: 50 mM Tris-Base, 100 mM NaCl, 1 mM EDTA, 0.1% BSA (protease free), 0.01% NaN3, 10 mM MnCl2, pH 7.0) was placed into each well. After addition of 75 μl Binding-Buffer, 50 μl of the radioligand ^3H-PGD2 (at 2.5 nM (220.000 dpm/well) from ANAWA ART0662) was added to each well. Binding assay was started by addition of 100 μl CRTH2 membrane fragments, reaching a final concentration of 20 μg/well. For non-specific binding, PGD2 was added to the reaction mixture to […] final concentration. This assay mix was incubated for 90 minutes at room temperature and then filtered through a GF/C filter 96-well plate which was pre-soaked for 3 hours in 0.5% polyethyleneimine (PEI). The filter-wells were washed three times with ice cold Binding-Buffer. Then, 40 μl of Microscint-40 (Packard) was added to each well and the retained radioactivity quantified in a Topcount (Packard).
(In general: Loss of bound radioactivity is the signal in a displacement assay; it reports binding, not function.)

hCRTH2 receptor, sequence (Q9Y5Y4 whole entry, the tested form may be a part): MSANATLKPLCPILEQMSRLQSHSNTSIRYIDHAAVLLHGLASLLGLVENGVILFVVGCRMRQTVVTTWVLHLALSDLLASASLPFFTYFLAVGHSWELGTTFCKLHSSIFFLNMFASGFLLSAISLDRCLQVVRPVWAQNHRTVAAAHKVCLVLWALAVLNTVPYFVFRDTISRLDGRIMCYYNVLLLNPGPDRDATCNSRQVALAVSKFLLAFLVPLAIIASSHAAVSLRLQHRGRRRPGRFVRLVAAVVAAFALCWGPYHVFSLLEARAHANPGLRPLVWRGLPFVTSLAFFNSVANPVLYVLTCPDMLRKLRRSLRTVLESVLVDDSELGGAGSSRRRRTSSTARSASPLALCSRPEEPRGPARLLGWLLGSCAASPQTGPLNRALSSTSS

Broadly, the IC50 is the point on the concentration scale where inhibition reaches its midpoint. A high value points to a need for much substance. Compound `COc1ccc(CC(=O)O)cc1-c1ccc(S(C)(=O)=O)c2c1CN(C(=O)OCc1ccccc1)CC2` [Example 25, 8-(5-Carboxymethyl-2-methoxy-phenyl)-5-methanesulfonyl-3,4-dihydro-1H-isoquinoline-2-carboxylic acid benzyl ester] gave an IC50 of 0.149 µM.

`COc1ccc(CC(=O)O)cc1-c1ccc(F)c2c1CN(C(=O)CCc1ccccn1)CC2` [Example 91, {3-[5-Fluoro-2-(3-pyridin-2-yl-propionyl)-1,2,3,4-tetrahydro-isoquinolin-8-yl]-4-methoxy-phenyl}-acetic acid] gave an IC50 of 0.0321 µM.

For `COc1ccc(CC(=O)O)cc1-c1ccc(F)c2c1CN(C(=O)CC(C)(O)c1ccccc1)CC2` (racemic) [Example 256], the IC50 stood at 0.0498 µM.

`CCOc1ccc(CC(=O)O)cc1-c1ccc(F)c2c1CN(C(=O)NCc1ccccc1F)CC2` [Example 432, {4-Ethoxy-3-[5-fluoro-2-(2-fluoro-benzylcarbamoyl)-1,2,3,4-tetrahydro-isoquinolin-8-yl]-phenyl}-acetic acid] gave an IC50 of 0.0053 µM.

As to `Cc1ccc(-c2cc(OCC(=O)O)ccc2Cl)c2c1CCN(C(=O)OCc1ccccc1)C2` [Example 179, 8-(5-Carboxymethoxy-2-chloro-phenyl)-5-methyl-3,4-dihydro-1H-isoquinoline-2-carboxylic acid benzyl ester], the IC50 was found to be 0.25 µM. Against the preceding compound, the IC50 is about 47-fold higher.

`O=C(O)COc1ccc(OC(F)(F)F)c(-c2ccc(F)c3c2CN(C(=O)[C@@H]2C[C@H]2c2ccccc2)CC3)c1` [Example 160, {3-[5-Fluoro-2-((1R,2R)-2-phenyl-cyclopropanecarbonyl)-1,2,3,4-tetrahydro-isoquinolin-8-yl]-4-trifluoromethoxy-phenoxy}-acetic acid] had a half-inhibitory concentration (IC50) of 0.00067 µM.

With `COc1ccc(CC(=O)O)cc1-c1ccc(F)c2c1CN(C(=O)[C@@H]1C[C@H]1c1ccccc1C)CC2` (racemic) [Example 6, (±)-{3-[5-Fluoro-2-(trans-2-o-tolyl-cyclopropanecarbonyl)-1,2,3,4-tetrahydro-isoquinolin-8-yl]-4-methoxy-phenyl}-acetic acid], the IC50 was 0.00422 µM.

The compound `COc1ccc(CC(=O)O)cc1-c1ccc(Cl)c2c1CN(C(=O)[C@@H]1C[C@H]1c1ccccc1F)CC2` [Example 70, (3-{5-Chloro-2-[(1R,2R)-2-(2-fluoro-phenyl)-cyclopropanecarbonyl]-1,2,3,4-tetrahydro-isoquinolin-8-yl}-4-methoxy-phenyl)-acetic acid] gave an IC50 of 0.00116 µM.

As for `COc1ccc(CC(=O)O)cc1-c1ccc(F)c2c1CCN(C(=O)CCOc1ccccc1)C2` [Example 102, {3-[8-Fluoro-2-(3-phenoxy-propionyl)-1,2,3,4-tetrahydro-isoquinolin-5-yl]-4-methoxy-phenyl}-acetic acid], the half-inhibitory concentration (IC50) amounted to 0.043 µM. This IC50 lies about 37-fold higher than the previous one.

Regarding `COc1ccc(CC(=O)O)cc1-c1ccc(F)c2c1CN(C(=O)CC1CCOc3ccc(F)cc31)CC2` (racemic) [Example 244], the IC50 came out at 0.158 µM. Against the preceding compound, the IC50 is about 3.7-fold higher.

For `CCOc1cc(CC(=O)O)ccc1-c1ccc(F)c2c1CN(C(=O)CC1COCc3ccccc31)CC2` (racemic) [Example 232], the concentration for half-maximal inhibition (IC50) was 0.0006 µM.

`C#CCCOC(=O)N1CCc2c(F)ccc(-c3cc(CC(=O)O)ccc3OCC)c2C1` [Example 381, 8-(5-Carboxymethyl-2-ethoxy-phenyl)-5-fluoro-3,4-dihydro-1H-isoquinoline-2-carboxylic acid but-3-ynyl ester] had an IC50 of 0.0288 µM. This IC50 lies about 48-fold higher than the previous one.

Consider `CC(C)Oc1cc(CC(=O)O)ccc1-c1ccc(F)c2c1CN(C(=O)C[C@@H](C)c1ccccc1)CC2` [Example 356, {4-[5-Fluoro-2-((R)-3-phenyl-butyryl)-1,2,3,4-tetrahydro-isoquinolin-8-yl]-3-isopropoxy-phenyl}-acetic acid], for which the IC50 stood at 0.0021 µM. This IC50 lies about 14-fold lower than the previous one.

With `CCOc1ccc(CC(=O)O)cc1-c1ccc(F)c2c1CN(C(=O)C(C)Cc1ccccc1)CC2` (stereo not drawn) [Example 213], the concentration for half-maximal inhibition (IC50) came to 0.111 µM.

Regarding `COc1ccc(CC(=O)O)cc1-c1ccc(C)c2c1CN(C(=O)OCc1ccccc1)CC2` [Example 155, 8-(5-Carboxymethyl-2-methoxy-phenyl)-5-methyl-3,4-dihydro-1H-isoquinoline-2-carboxylic acid benzyl ester], the IC50 came out at 0.0468 µM.

`CCOc1ccc(CC(=O)O)cc1-c1ccc(F)c2c1CN(C(=O)CC(C)c1ccccc1F)CC2` (racemic) [Example 280] had an IC50 of 0.0034 µM.

In the case of `COc1cc(CC(=O)O)ccc1-c1ccc(F)c2c1CN(C(=O)CCn1ncc3cc(F)ccc31)CC2` [Example 190, (4-{5-Fluoro-2-[3-(5-fluoro-indazol-1-yl)-propionyl]-1,2,3,4-tetrahydro-isoquinolin-8-yl}-3-methoxy-phenyl)-acetic acid], the IC50 was 0.00725 µM.

With `CCOc1cc(CC(=O)O)ccc1-c1ccc(F)c2c1CN(C(=O)OCCC(C)C)CC2` [Example 393, 8-(4-Carboxymethyl-2-ethoxy-phenyl)-5-fluoro-3,4-dihydro-1H-isoquinoline-2-carboxylic acid 3-methyl-butyl ester], the IC50 was determined as 0.0494 µM.

For `O=C(O)Cc1ccc(OCC(F)(F)F)c(-c2ccc(F)c3c2CN(C(=O)CC2COCc4ccccc42)CC3)c1` (racemic) [Example 305], the IC50 came out at 0.0034 µM.

`CCOc1ccc(CC(=O)O)cc1-c1ccc(F)c2c1CN(C(=O)/C=C/c1cnn(C)c1)CC2` [Example 341, (4-Ethoxy-3-{5-fluoro-2-[(E)-3-(1-methyl-1H-pyrazol-4-yl)-acryloyl]-1,2,3,4-tetrahydro-isoquinolin-8-yl}-phenyl)-acetic acid] had an IC50 of 0.0058 µM.

In turn, `COc1ccc(CC(=O)O)cc1-c1ccc(F)c2c1CN(C(=O)[C@@H]1CCCc3ccccc31)CC2` [Example 269, {3-[5-Fluoro-2-((R)-1,2,3,4-tetrahydro-naphthalene-1-carbonyl)-1,2,3,4-tetrahydro-isoquinolin-8-yl]-4-methoxy-phenyl}-acetic acid] displayed an IC50 of 0.0957 µM.

For the compound `COc1ccc(CC(=O)O)cc1-c1ccc(F)c2c1CN(C(=O)[C@@H]1C[C@H]1c1ccc(Cl)cc1)CC2` (racemic) [Example 2, (±)-(3-{2-[trans-2-(4-Chloro-phenyl)-cyclopropanecarbonyl]-5-fluoro-1,2,3,4-tetrahydro-isoquinolin-8-yl}-4-methoxy-phenyl)-acetic acid], the IC50 was 0.00193 µM.

Turning to `COc1ccc(C2(C(=O)O)CC2)cc1-c1ccc(F)c2c1CN(C(=O)[C@@H]1C[C@H]1c1ccccc1)CC2` [Example 429, 1-{3-[5-Fluoro-2-((1R,2R)-2-phenyl-cyclopropanecarbonyl)-1,2,3,4-tetrahydro-isoquinolin-8-yl]-4-methoxy-phenyl}-cyclopropanecarboxylic acid], the half-inhibitory concentration (IC50) was found to be 0.0507 µM.

`COc1ccc(CC(=O)O)cc1-c1ccc(F)c2c1CN(C(=O)C1CC(=O)c3ccccc31)CC2` (racemic) [Example 122, (±)-{3-[5-Fluoro-2-(3-oxo-indane-1-carbonyl)-1,2,3,4-tetrahydro-isoquinolin-8-yl]-4-methoxy-phenyl}-acetic acid] yielded a half-maximal inhibitory concentration (IC50) of 0.862 µM.

Compound `CC(C)Oc1ccc(CC(=O)O)cc1-c1ccc(F)c2c1CN(C(=O)[C@@H]1C[C@H]1c1ccccc1)CC2` [Example 27, {3-[5-Fluoro-2-((1R,2R)-2-phenyl-cyclopropanecarbonyl)-1,2,3,4-tetrahydro-isoquinolin-8-yl]-4-isopropoxy-phenyl}-acetic acid] showed a concentration for half-maximal inhibition (IC50) of 0.0129 µM.

In turn, `C=C(C)CCOC(=O)N1CCc2c(F)ccc(-c3cc(CC(=O)O)ccc3OCC)c2C1` [Example 379, 8-(5-Carboxymethyl-2-ethoxy-phenyl)-5-fluoro-3,4-dihydro-1H-isoquinoline-2-carboxylic acid 3-methyl-but-3-enyl ester] came in with an IC50 of 0.0025 µM.

`COc1ccc(CC(=O)O)cc1-c1ccc(F)c2c1CN(C(=O)[C@H]1C[C@@H]1c1ccccc1)CC2` [Example 81, {3-[5-Fluoro-2-((1S,2S)-2-phenyl-cyclopropanecarbonyl)-1,2,3,4-tetrahydro-isoquinolin-8-yl]-4-methoxy-phenyl}-acetic acid] showed an IC50 of 0.0331 µM. This IC50 lies about 13-fold higher than the previous one.

The compound `CC(C)Oc1cc(CC(=O)O)ccc1-c1ccc(F)c2c1CN(C(=O)C[C@H](C)c1ccccc1)CC2` [Example 355, {4-[5-Fluoro-2-((S)-3-phenyl-butyryl)-1,2,3,4-tetrahydro-isoquinolin-8-yl]-3-isopropoxy-phenyl}-acetic acid] had an IC50 of 0.0103 µM.

As to `CCOc1cc(CC(=O)O)ccc1-c1ccc(F)c2c1CN(C(=O)O[C@H](C)c1ccccc1)CC2` [Example 385, 8-(4-Carboxymethyl-2-ethoxy-phenyl)-5-fluoro-3,4-dihydro-1H-isoquinoline-2-carboxylic acid (R)-1-phenyl-ethyl ester], the IC50 turned out to be 0.0358 µM. This IC50 is about 3.5-fold higher than that of the compound before.

The compound `COc1ccc2onc(CC(=O)N3CCc4c(F)ccc(-c5cc(CC(=O)O)ccc5OC)c4C3)c2c1` [Example 49, (3-{5-Fluoro-2-[2-(5-methoxy-benzo[d]isoxazol-3-yl)-acetyl]-1,2,3,4-tetrahydro-isoquinolin-8-yl}-4-methoxy-phenyl)-acetic acid] came in with a concentration for half-maximal inhibition (IC50) of 0.054 µM.

(Values after US9255090B2, “Heterocyclyl derivatives and their use as prostaglandin D2 receptor modulators” (Actelion Pharmaceuticals Ltd., priority 2012, dated 2016).)
